Assays:
GDE3 = target: T1, GDE3 (Homo sapiens, UniProt Q9HCC8); experiment: validation and site of action of candidate drugs from fresh powder by western blot analysis and surface biotinylation assay; format: cell-based; details: for release of CNTFR into the medium: HEK293T cells transfected with Luc-CNTFR and GDE3; for release of CNTFR into the medium / expression and localization of CNTFR and GDE3: 10 μM in 0.1% DMSO, 24 hours treatment; for expression and localization of CNTFR and GDE3: western blot banding pattern and surface biotinylation
T1 construct: expressed in transfected cells; host or cells: HEK293T
T1 sequence (Q9HCC8 1-539): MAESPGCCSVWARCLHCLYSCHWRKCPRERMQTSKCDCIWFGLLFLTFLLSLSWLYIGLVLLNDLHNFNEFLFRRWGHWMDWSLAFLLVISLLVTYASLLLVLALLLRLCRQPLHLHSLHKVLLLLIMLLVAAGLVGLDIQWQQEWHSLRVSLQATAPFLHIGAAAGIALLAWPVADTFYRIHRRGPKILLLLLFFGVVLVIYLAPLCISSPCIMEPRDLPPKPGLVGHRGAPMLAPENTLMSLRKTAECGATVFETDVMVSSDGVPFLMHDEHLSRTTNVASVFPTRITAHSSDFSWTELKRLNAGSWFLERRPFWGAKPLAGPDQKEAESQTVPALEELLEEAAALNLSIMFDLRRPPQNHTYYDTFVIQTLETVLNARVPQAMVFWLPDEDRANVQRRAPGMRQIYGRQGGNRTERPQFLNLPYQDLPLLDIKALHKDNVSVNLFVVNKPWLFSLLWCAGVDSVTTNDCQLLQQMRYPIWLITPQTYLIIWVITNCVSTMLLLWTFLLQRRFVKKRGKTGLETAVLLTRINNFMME
Description: FIG. 10. Validation and identification of the site of action of candidate drugs. Drugs hit by a high-throughput screening were prepared from the fresh powders and their activity was tested by established western blot analysis. […] Concentration of drugs=10 μM.
HEK293T cells were cultured in DMEM with 10% FBS on polyethyleneimine (PEI)-coated 12 well plates and transfected using Fugene6 agent (Roche). 24 hours after transfection, medium was changed to serum free DMEM and cells were incubated for an additional 24 hours. Medium and cell lysates were collected separately, and secretion and expression of proteins were analyzed by western blot and quantified using ImageJ (NIH). Antibodies used in Western analyses were rabbit-anti Jag1 (1:1000, Santa Cruz); rabbit anti-CRD (1:250, gift from Paul Englund) and mouse anti-myc (1.5 μg/ml for IP, DSHB) and as described.
Surface biotinylation assay was performed as previously described (29). Briefly, thirty hours after transfection of HEK293T cells with RECK/GDE and CreER constructs, cells were cooled on ice, washed twice with ice cold PBS++(1×PBS, 1 mM CaCl2, 0.5 mM MgCl2) and then incubated with PBS++ containing 1 mg/ml Sulfo-NHS-SSBiotin (Pierce) for 30 min at 4° C. Unreacted biotin was quenched by PBS++ containing 100 mM Glycine. Cultures were harvested in RIPA buffer, sonicated, and centrifuged at […] for 20 min at 4° C. The supernatant was rotated with Streptavidin beads (Pierce) for 2 hr at 4° C. Precipitates were washed with RIPA buffer three times and eluted with SDS gel loading buffer.
Currently, specific pharmacological modulators for GPI-AP cleavage have not been identified due to poor characterization of GPI-AP cleaving enzymes and the absence of an in vitro assay system. The robust GPI-AP cleaving activity of 6-TM GDEs has allowed the establishment of a luciferase-based, high throughput drug screening assay (signal to noise ratio=44.6; signal to background ratio=7.0; Z′ score=0.6: an excellent assay category). Measuring the GDE3-dependent release of GPI-anchored luciferase into the medium, the present inventors screened 3,360 compounds of the Johns Hopkins Drug library (JHDL), which contains FDA approved and phase II clinical trial drugs. The present inventors have selected common hits, which reduce or increase the release of luciferase activity into the medium more than 3 standard deviations of DMSO controls from duplicated experiments and identified 163 inhibitors (4.9%) and 138 activators (4.1%). Since the assay targets the whole GPI synthesis pathway as well as GPI cleaving activity, it is crucial to identify the site of action. Candidate drugs could modulate different steps of synthesis and cleavage of GPI-APs and will be categorized as follow: drugs activate or inhibit (i) the GPI biosynthesis machinery, (ii) glycosylation, (iii) surface expression of GPI-AP or GDE3, (iv) GPI cleaving activity of GDE, or (v) GPI cleaving-independent secretion of GPI-AP. Among 163 inhibitors, 23 drugs have been prepared from fresh powder stocks and their sites of action were tested by established western blot analyses and results are as follows: 10 drugs (no effect), 9 drugs (reducing surface expression and/or glycosylation of GPI-APs), and 4 drugs (inhibiting GPI-cleaving activity).
JHDL was used to screen drugs that affect the release of Luc-CNTFR into the medium. Drugs that increase or decrease the release index more than 3 SD of 16 DMSO controls of each plate were selected. Common hits of duplicated independent experiments were further analyzed. Among 3,360 drugs screened, we have identified 163 inhibitors and 138 activators. Among 163 inhibitors, 23 compounds were prepared from a fresh powder and their site of action was analyzed (10 μM in 0.1% DMSO, 24 hours treatment). To test whether drugs affect glycosylation and/or surface expression of CNTFR or GDE3, banding pattern of Western blot analysis and surface biotinylation assay were performed (FIG. 10). […]

[1] = target: Luc-CNTFR (firefly) [luciferase: P08659]; experiment: cell-based or functional assay
[2] = Concentration of drugs=10 μM, western blot

Luc-CNTFR (firefly) [luciferase: P08659], sequence (P08659 whole entry): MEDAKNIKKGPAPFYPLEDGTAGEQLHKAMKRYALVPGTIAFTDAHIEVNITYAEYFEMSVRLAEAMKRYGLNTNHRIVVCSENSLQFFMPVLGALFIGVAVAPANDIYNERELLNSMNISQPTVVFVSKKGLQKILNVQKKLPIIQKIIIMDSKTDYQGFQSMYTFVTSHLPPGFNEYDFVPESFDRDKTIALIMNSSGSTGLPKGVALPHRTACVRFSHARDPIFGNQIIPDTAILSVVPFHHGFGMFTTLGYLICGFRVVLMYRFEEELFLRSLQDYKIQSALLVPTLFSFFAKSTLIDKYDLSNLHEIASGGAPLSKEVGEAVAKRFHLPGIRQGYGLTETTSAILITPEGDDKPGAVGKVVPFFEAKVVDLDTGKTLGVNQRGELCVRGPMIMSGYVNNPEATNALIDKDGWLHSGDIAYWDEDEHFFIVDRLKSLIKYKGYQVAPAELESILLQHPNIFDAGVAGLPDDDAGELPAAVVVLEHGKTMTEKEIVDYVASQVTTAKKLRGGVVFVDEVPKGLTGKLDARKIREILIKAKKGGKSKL

Row | Compound | release of CNTFR into the medium (GDE3; western blot) | expression and localization of CNTFR and GDE3 (GDE3) | also measured
1 | O=C(O)CCC(=O)c1ccc(-c2ccccc2)cc1 [fenbufen] | increase the release of CNTFR into the medium | – | –
2 | CCCCCCCCC(=O)NCc1ccc(O)c(OC)c1 [nonivamide] | inhibitor of the release of CNTFR | without affecting expression and localization of CNTFR and GDE3 | –
3 | CC[C@H]1OC(=O)[C@H](C)[C@@H](O[C@H]2C[C@@](C)(OC)[C@@H](O)[C@H](C)O2)[C@H](C)[C@@H](O[C@@H]2O[C@H](C)C[C@H](N(C)C)[C@H]2O)[C@](C)(O)C[C@@H](C)C(=O)[C@H](C)[C@@H](O)[C@]1(C)O [erythromycin] | inhibitor of the release of CNTFR | without affecting expression and localization of CNTFR and GDE3 | lysate level of CNTFR (GDE3; [2]): without affecting the lysate level; release of CNTFR into the medium (GDE3; western blot, listed as Erythromycin): inhibits the release of CNTFR
4 | N[C@@H](Cc1cc(I)c(Oc2cc(I)c(O)c(I)c2)c(I)c1)C(=O)O [thyroxine] | inhibitor of the release of CNTFR | without affecting expression and localization of CNTFR and GDE3 | –
5 | CN1[C@@H]2CC[C@H]1C[C@@H](OC(c1ccccc1)c1ccccc1)C2 [benzotropine] | – | – | glycosylation pattern of CNTFR (GDE3; [2]): affect glycosylation pattern of CNTFR
6 | COc1c(C)c2c(c(O)c1C/C=C(\C)CCC(=O)O)C(=O)OC2 [mycophenolic acid] | – | – | glycosylation pattern of CNTFR (GDE3; [2]): affect glycosylation pattern of CNTFR
7 | vitamin B12 | inhibitor of the release of CNTFR | without affecting expression and localization of CNTFR and GDE3 | –
8 | GDE3 (enzyme) | – | – | release index (luciferase activity in the medium/cell lysate) [1]: 7 fold
9 | COc1ccc(CN(CCN(C)C)c2ccccn2)cc1 [pyrilamine] | increase the release of CNTFR into the medium | – | –
